From patent US10632127B2, “Targeted notch pathway inhibitors” (Hoffmann-La Roche Inc., priority 2015, dated 2020)

Assays:
[1] = tested on: Notch1 and cleaved Notch1; experiment: Immunohistochemistry of Notch1 and cleaved Notch1 in kidneys of mice exposed to aristolochic acid; type: in vivo, mouse; settings: for Notch1 and cleaved Notch1 in kidneys (immunohistochemistry): AA-exposed mice, 11a 10 mg/kg b.i.d. or 13a 30 mg/kg b.i.d. i.p., day 7, versus AA-treated mice without prodrug; for modification of Notch or cleaved Notch levels in the kidneys: healthy wild-type mice, compound injected alone (results not shown)
Method: FIG. 3. Expression of Notch1 and active cleaved Notch1 determined by immuno-histochemistry in kidneys of mice exposed to aristolochic acid (AA) and treated either with the amine-SecrI (11a) or with Ac-γ-Glu-SecrI (13a).
Sections (7 μm) of snap-frozen kidneys were exposed to an anti-γ-secretase-cleaved Notch (cNotch) antibody, followed by the […] staining. Immunostaining is visualized as dark precipitate.
All experiments with animals were conducted in accordance with federal and local regulation at the respective study location. Kidney injury was induced by intraperitoneal (i.p). injection of aristolochic acid (AA, Sigma-Aldrich, 1×5 mg/kg) in 10 weeks old BALB/c male mice. The γ-secretase inhibitors prodrugs were diluted in NaCl 0.9% and administered i.p., starting one day before the injection of AA (day −1) and then twice daily until day 6 evening (n=5 mice/experimental group). At day 7 morning (12 h after the last prodrug injection), blood was collected and the mice were sacrificed to remove the liver and both kidneys. The kidneys were cut in four fragments. One fragment was immediately frozen in liquid nitrogen, one fragment was included in OCT (Tissue-Tek, VWR International, Switzerland) and frozen, one fragment was frozen at −80° C. and one fragment was fixed in 4% paraformaldehyde and included in paraffin.
OCT-embedded frozen kidneys were cut at 7 μm. The sections were air dried, fixed for 10 min in cold (−20° C.). methanol, rinsed in PBS 0.1% Triton x-100 (PBS/Triton), and blocked for 30 min with PBS/Triton containing 5% bovine serum albumin (BSA). The rabbit anti-Notch1 antibody (D1E11, diluted 1/50) and the rabbit anti-cleaved Notch1 antibody (Val1744, diluted 1/50) were purchased from Cell Signaling, the biotinylated anti-rabbit antibody from Vector Laboratories (diluted 1/500) and streptavidin/HRP (diluted 1/500) from Dako. The primary antibodies were diluted in PBS containing 5% BSA and were incubated with the sections for 1 h at RT. Endogenous peroxidase and biotin were blocked using 3% H2O2 and Avidin/Biotin blocking kit (Vector Laboratories), respectively. The slides were rinsed with PBS/Triton three times and incubated for 1 h at RT with anti-rabbit biotin secondary antibody diluted in the same buffer as for primary antibodies. After three washes with PBS, slides were incubated with streptavidin/HRP antibody for 1 h at RT, then 3,3′diaminobenzidine (DAB, Dako) was added for 15 min. The slides were washed in distilled water, mounted in Aquamount and analyzed.
To investigate potential nephroprotective effects of Notch blockade using γ-secretase inhibition and to evaluate the effects of our enzyme-targeted prodrug strategy, we used the in vivo AA mouse model of acute renal tubular damage. […]

[2] = tested on: γ-GT; experiment: Histoenzymography of γ-GT activity in ex-vivo mouse kidneys; type: biochemical; settings: ex-vivo kidneys of non-diseased BALB/c mice
Method: FIG. 2B. Selective inhibition of the enzymatic activities of APA and yGT by the γ-secretase analogues determined by histoenzymography in the kidneys of non diseased BALB/c mice.
Evaluation by histoenzymography of APA and γ-GT enzymatic activities on frozen tissue was performed as described in Juillerat-Jeanneret, L. et al., Lab. Invest. 2000, 80, 973-980. Briefly, OCT-embedded frozen kidneys were cut in 7 μm sections in a cryostat, fixed for 5 min in cold (−20° C.) acetone, air dried at RT and rehydrated for 5 min in 0.9% NaCl. Naphthylamide substrates were obtained from commercial sources (α-Glu-4-methoxy-β-naphtylamide (APA) from Bachem; and γ-Glu-4-methoxy-β-naphtylamide (γ-GT) from Serva). Substrates (1 mg) were dissolved in 1 ml DMF and 2 mg Fast Blue B (Sigma-Aldrich) was dissolved in 2 ml 0.2M cacodylate buffer pH 7.4 containing 700 mg/l CaCl2; then both solutions were slowly mixed immediately before use and the pH adjusted to 6.5-7.0. […] The slides were washed in distilled water, counter-stained with hematoxylin (Mayer) for 1 min, rinsed under tap water, then with Scott solution for 1 min, rinsed under tap water, mounted in Aquamount (Immu-mount, Thermo Shandon Pittsburgh, Pa., USA) and analyzed with a Nikon Eclipse E800 microscope and digital DXM1200 camera using ACT-1 software. […]

SMILES | Notch1 and cleaved Notch1 in kidneys (immunohistochemistry) [1] | modification of Notch or cleaved Notch levels in the kidneys [1] | inhibition of γ-GT-like activity (hydrolysis of γ-Glu-naphthylamide) [2]
C[C@H]1Oc2ccc(F)cc2N(CCOC(=O)NCCN)C(=O)[C@H]1NC(=O)[C@@](C)(O)C(=O)NCC(F)(F)C(F)(F)F.Cl [Compound 11a, 2-((2R,3S)-7-Fluoro-3-((S)-2-hydroxy-2-methyl-3-oxo-3-(2,2,3,3,3-pentafluoropropylamino)propanamido)-2-methyl-4-oxo-3,4-dihydrobenzo[b][1,4]oxazepin-5(2H)-yl)ethyl 2-aminoethylcarbamate hydrochloride] | reduced | Neither (11a) nor (13a) injected alone induced any modification | –
CC(=O)N[C@@H](CCC(=O)NCCNC(=O)OCCN1C(=O)[C@@H](NC(=O)[C@@](C)(O)C(=O)NCC(F)(F)C(F)(F)F)[C@@H](C)Oc2ccc(F)cc21)C(=O)O [Compound 13a, (S)-2-acetamido-5-(2-((2-((2R,3S)-7-fluoro-3-((S)-2-hydroxy-2-methyl-3-oxo-3-(2,2,3,3,3-pentafluoropropylamino)propanamido)-2-methyl-4-oxo-3,4-dihydrobenzo[b][1,4]oxazepin-5(2H)-yl)ethoxy)carbonylamino)ethylamino)-5-oxopentanoic acid] | reduced | Neither (11a) nor (13a) injected alone induced any modification | able to inhibit γ-GT-like activity
